{"source": "patent US20160152540A1", "about": "“NEW PROCESS FOR THE MAINTAINING OF A RATIO OF ISOMERS OF CAROTENOID COMPOUNDS” (DSM IP ASSETS B.V., priority 2013, published 2016)", "experiment": "Stability of the astaxanthin stereoisomer ratio (all-E form) in chloroform at 40° C., measured spectrophotometrically at 478 nm", "conditions": "tempered at 40° C., stored, sampled periodically", "procedure": "The solution was homogenized and the formulation was tempered at 40° C. The solution was stored and samples were taken periodically and the concentration of astaxanthin was measured spectrophotometrically at 478 nm.", "data": [{"compound": "CC1=C(/C=C/C(C)=C/C=C/C(C)=C/C=C/C=C(C)/C=C/C=C(C)/C=C/C2=C(C)C(=O)[C@@H](O)CC2(C)C)C(C)(C)C[C@H](O)C1=O", "note": "[astaxanthin]", "values": [{"measurement": "stabilisation of the all-E-form / ratio of stereoisomers of astaxanthin (FIG. 1 and FIG. 2)", "result": "the ratio is deteriorating usually"}]}, {"compound": "CC(=O)[O-].[K+]", "note": "[CH3COOK, potassium acetate]", "values": [{"measurement": "stabilisation of the all-E-form / ratio of stereoisomers of astaxanthin (FIG. 1 and FIG. 2)", "result": "stabilises the all-E-form better than K2CO3"}]}]}
